Measured values taken from patent publication EP2269591B1, “IMPROVED PHARMACEUTICAL FORMULATIONS” (AbbVie Inc., priority 2000, dated 2001).
Read-outs that look alike come from different tables or passages of the source.

Experiment: oral bioavailability in dogs
Format: in vivo
Conditions: unformulated solid in a capsule dosage form, 5 mg/kg oral dose in dogs
Experimental: Dogs (beagle dogs, mixed sexes, weighing 7-14 kg) were fasted overnight prior to dosing, but were permitted water ad libitum. Each dog received a 100 µg/kg subcutaneous dose of histamine approximately 30 minutes prior to dosing. Each dog received a single dosage form corresponding to a 5 mg/kg dose of the drug. The dose was followed by approximately 10 milliliters of water. Blood samples were obtained from each animal prior to dosing and 0.25, 0.5, 1.0, 1.5, 2, 3, 4, 6, 8, 10, and 12 hours after drug administration. The plasma was separated from the red cells by centrifugation and frozen (-30 °C) until analysis. Concentrations of parent drug were determined by reverse phase HPLC with low wavelength UV detection following liquid-liquid extraction of the plasma samples. The parent drug area under the curve was calculated by the trapezoidal method over the time course of the study. The absolute bioavailability of each test composition was calculated by comparing the area under the curve after oral dosing to that obtained from a single intravenous dose. Each capsule or capsule composition was evaluated in a group containing at least six dogs; the values reported are averages for each group of dogs.

| bioavailability | bioavailability (dog, in vivo, read-out: bioavailability) | Structure (SMILES) |
| --- | --- | --- |
| less than 2% |  | CC(C)c1nc(CN(C)C(=O)N[C@H](C(=O)N[C@@H](Cc2ccccc2)C[C@H](O)[C@H](Cc2ccccc2)NC(=O)OCc2cncs2)C(C)C)cs1 [compound of formula I] |
|  | < 2% | CC(C)c1nc(CN(C)C(=O)NC(C(=O)NC(Cc2ccccc2)CC(O)C(Cc2ccccc2)NC(=O)OCc2cncs2)C(C)C)cs1 (centres unmarked) [bis-tosylate of a compound of formula I] |
